Here are results for one compound from US20070003976A1, “Car ligand-binding domain polypeptide co-crystallized with a ligand, and methods of designing ligands that modulate car activity” (SMITHKLINE BEECHAM CORPORATION, priority 2003, published 2007).

The target of the assay is T1, human CAR LBD protein (Homo sapiens, UniProt Q14994).
T1 construct: made in house; host or cells: E. coli BL21 (DE3), pRSETA vector
T1 sequence (Q14994 103-348 isoform Q14994-2): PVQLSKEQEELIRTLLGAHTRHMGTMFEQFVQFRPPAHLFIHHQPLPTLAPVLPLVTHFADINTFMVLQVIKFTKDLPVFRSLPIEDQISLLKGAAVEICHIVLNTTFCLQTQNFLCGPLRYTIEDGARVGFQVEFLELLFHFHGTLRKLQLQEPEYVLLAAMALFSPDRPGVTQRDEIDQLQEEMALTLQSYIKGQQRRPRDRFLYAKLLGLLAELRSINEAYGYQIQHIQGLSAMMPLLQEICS
Put plainly: Fluorescence Resonance Energy Transfer (FRET) Ligand Sensing Assay: CAR LBD / SRC-1 coactivator peptide interaction. The format is biochemical. How it is done:
Screening of synthetic compound libraries with the purified CAR LBD protein by a Fluorescence Resonance Energy Transfer (FRET) Ligand Sensing Assay (Parks et al., 1999) was conducted to identify molecules that alter the basal interaction between a coactivator peptide and the CAR LBD protein. Briefly, the purified human CAR LBD protein was biotinylated and labeled with streptavidin-conjugated fluorophore allophycocyanin. The labeled CAR LBD protein was incubated with a test compound and with a peptide that included the second LXXLL binding motif of the nuclear coactivator SRC-1 (GenBank Accession No. U59302; amino acids 676-700) that was labeled with europium chelate. Data were collected with a WALLAC VICTOR™ fluorescence reader (available from PerkinElmer Life Sciences Inc., Boston, Mass., United States of America) in a time resolved mode and the fluorescence ratio calculated.

Structures are written as SMILES.

Regarding `NC(=O)c1ccc2nc(NC(c3ccccc3)c3ccccc3)n(CCc3ccccc3)c2c1` [Compound 1, 2-(benzhydrylamino)-1-(2-phenylethyl)-1H-benzimidazole-6-carboxamide], the midpoint of the response (dose response curves with purified CAR LBD protein, reduction of basal CAR LBD/SRC-1 peptide FRET signal (inverse agonist)), the EC50, lay at 0.015 µM. Further, the “effect on basal fluorescent signal (CAR LBD/SRC-1 interaction)” value (screen of synthetic compound libraries, time resolved fluorescence ratio) is given as “inverse agonist molecule that reduces the basal fluorescent signal”.
